The values that follow are results of earlier work, collected in patent publication US20050218054A1, “Apparatus for Producing sterilized water” (priority 2002, published 2005).

For this data set the following is noted: same chlorine concentration.

As to `OCl` [hypochlorous acid ion], the “Sterilization power relative to hypochlorous acid (HOCL)” value was “about 1/80”.
